Measured values as given in patent US9918990B2, “Substituted pyrrolo[2,3-c]pyridines and pyrazolo[3,4-c]pyridines as BET protein inhibitors” (Incyte Corporation, priority 2013, dated 2018).

How the values were obtained:
BRD4-BD2 = BRD4-BD2 (Homo sapiens (Human), UniProt O60885); test: BRD4 AlphaScreen assay, BRD4-BD2; type: binding; conditions: H4Ac4 peptide, 75 min, room temperature, read-out: BRD4 BD-2 enzyme IC50
Outline: (§1)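 AlphaScreen read after 75 min dark incubation at room temperature, inhibitors serially diluted in DMSO and added before other components. IC50 from fit of percent control activity versus log inhibitor concentration.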

KMS.12.BM cells = test: KMS.12.BM cell viability assay (Cell Titer-GLO, ATP quantitation); type: cell-based; conditions: Homo sapiens, 72 h, 3 days, concentration required for 50% cell death, read-out: KMS cellular IC50
Outline: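 Human myeloma KMS.12.BM cells, 5000 cells/well in RPMI with 10% FBS, were exposed to a compound concentration range for 3 days. Viability was read by Cell Titer-GLO ATP luminescence relative to untreated cells; IC50 is the concentration giving 50% cell death.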

C-myc = test: KMS.12.BM C-myc ELISA assay; type: cell-based; conditions: Homo sapiens; KMS.12.BM cells, 2 hours, concentration required for 50% C-myc inhibition
Outline: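 Human myeloma KMS.12.BM cells in RPMI/10% FBS were exposed to a compound concentration range for 2 h, then lysed with protease inhibitors. C-myc in clarified lysates was measured by ELISA. IC50 is the concentration giving 50% C-myc inhibition relative to untreated cells.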

BRD4-BD1 = BRD4-BD1 (Homo sapiens (Human), UniProt O60885); test: BRD4 AlphaScreen assay, BRD4-BD1; type: binding; conditions: H4Ac4 peptide, 75 min, room temperature, read-out: BRD4 BD-1 enzyme IC50
Outline: as §1

SMILES	IC50 (BRD4-BD2) [nM]	IC50 (KMS.12.BM cells) [nM]	IC50 (C-myc) [nM]	IC50 (BRD4-BD1) [nM]
CC(O)c1cc(-c2cn(C)c(=O)c3[nH]ncc23)c(Oc2ccc(F)cc2F)c2ncn(C)c12 (centres unmarked) [Example 78, 4-[4-(2,4-Difluorophenoxy)-7-(1-hydroxyethyl)-1-methyl-1H-benzimidazol-5-yl]-6-methyl-1,6-dihydro-7H-pyrazolo[3,4-c]pyridin-7-one]	< 100	≤ 1000	≤ 1000	< 100
Cn1cc(-c2ccc3c([nH]c(=O)n3C)c2Oc2ccccc2F)c2cc[nH]c2c1=O [Example 39, 4-(2-Fluorophenoxy)-1-methyl-5-(6-methyl-7-oxo-6,7-dihydro-1H-pyrrolo[2,3-c]pyridin-4-yl)-1,3-dihydro-2H-benzimidazol-2-one]	< 100	≤ 1000	≤ 1000	< 100
